Laboratory results: patent publication US7030145B2, “Pyridinyl derivatives for the treatment of depression” (Bristol-Myers Squibb Company, priority 2003, dated 2006)

Tests used:
[1] = target: T1, cloned human CRF-R1 receptors (Homo sapiens, UniProt P34998); experiment: CRF-R1 receptor binding assay (inhibition of 125I-ovine-CRF binding to cell membranes); conditions: membranes of 293EBNA cells transfected with hCRFR1, class d = reported as percent inhibition at 10 μM, figures not given, read-out: activity (Ki class in the CRF assays)
T1 construct: the coding region was amplifies by PCR from start to stop codons; expressed in transfected cells; membranes
T1 sequence (P34998 24-415): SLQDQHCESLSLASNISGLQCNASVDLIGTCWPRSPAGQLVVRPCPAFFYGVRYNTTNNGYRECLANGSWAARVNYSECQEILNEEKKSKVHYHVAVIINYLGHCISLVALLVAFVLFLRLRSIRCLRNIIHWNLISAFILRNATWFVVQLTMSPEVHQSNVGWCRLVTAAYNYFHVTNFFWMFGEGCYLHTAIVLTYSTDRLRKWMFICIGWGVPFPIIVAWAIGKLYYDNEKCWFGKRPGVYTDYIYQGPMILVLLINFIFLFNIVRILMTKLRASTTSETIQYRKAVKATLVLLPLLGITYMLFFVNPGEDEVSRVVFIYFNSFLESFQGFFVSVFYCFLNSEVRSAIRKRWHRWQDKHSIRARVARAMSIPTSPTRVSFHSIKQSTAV
Excerpt: The following is a description of the isolation of cell membranes containing cloned human CRF-R1 receptors for use in a standard binding assay as well as a description of the assay itself.
Messenger RNA was isolated from human hippocampus. […]. The mRNA was reverse transcribed using oligo (dt) 12–18 and the coding region was amplifies by PCR from start to stop codons. The resulting PCR fragment was cloned into the EcoRV site of pGEMV, from whence the insert was reclaimed using XhoI+XbaI and cloned into the XhoI+XbaI sites of vector pm3 as (which contains a CMV promoter, the SV′t′ splice and early poly A signals, an Eptein-Barr viral origin of replication, and a hygromycin selectable marker). The resulting expression vector, called phchCRFR was transfected in 293EBNA cells and cells retaining the episome were selected in the presence of […] hygromycin. Cells surviving 4 weeks of selection in hygromycin were pooled, adapted to growth in suspension and used to generate membranes for the binding assay described below. Individual aliquots containing approximately 1×10^8 of the suspended cells were then centrifuged to form a pellet and frozen. For the binding assay a frozen pellet described above containing 293EBNA cells transfected with hCRFR1 receptors is homogenized in 10 mL of ice cold tissue buffer (50 mM HEPES buffer pH 7.0, containing 10 MM MgCl2, 2 mM EGTA, 1 μg/mL apotinin, 1 μg/mL leupeptin and 1 μg/mL pepstatin). The homoginate is centrifuged at 40,000×g for 12 min and the resulting pellet rehomogenized in 10 mL of tissue buffer. After another centrifugation at 40,000×g for 12 min, the pellet is resuspended to a protein concentration of 360 μg/mL to be used in the assay.
Binding assays are performed in 96 well plates; each well having a 300 μL capacity. To each well is added 50 μL of test drug dilutions (final concentration of drugs range from 10^−10–10^−5 M), 100 μL of ^125I-ovine-CRF (^125I-o-CRF) (final concentration 150 pM) and 150 μL of the cell homoginate described above. Plates are then allowed to incubate at room temperature for 2 hours before filtering the incubate over GF/F filters (presoaked with 0.3% polyethyleneimine) using an appropriate cell harvester. Filters are rinsed 2 times with ice cold assay buffer before removing individual filters and assessing them for radioactivity on a gamma counter.
Curves of the inhibition of ^125I-o-CRF binding to cell membranes at various dilutions of test drug are analyzed by the iterative curve fitting program LIGAND [P. J. Munson and D. Rodbard, Anal. Biochem., 107:220 (1980), which provides Ki values for inhibition which are then used to assess biological activity. […]
Messenger RNA was isolated from human hippocampus. The mRNA was isolated from human hippocampus. The mRNA was reverse transcribed using oligo (dt) 12–18 and the coding region was amplifies by PCR from start to stop codons. The resulting PCR fragment was cloned into the EcoRV site of pGEMV, from whence the insert was reclaimed using XhoI+XbaI and cloned into the XhoI+XbaI sites of vector pm3 as (which contains a CMV promoter, the SV′t′ splice and early poly A signals, an Eptein-Barr viral origin of replication, and a hygromycin selectable marker). The resulting expression vector, called phchCRFR was transfected in 293EBNA cells and cells retaining the episome were selected in the presence of […] hygromycin. Cells surviving 4 weeks of selection in hygromycin were pooled, adapted to growth in suspension and used to generate membranes for the binding assay described below. […]
A frozen pellet described above containing 293EBNA cells transfected with hCRFR1 receptors or the rat frontal cortex tissue dissected from frozen rat brains was prepared as the source of membranes expressing CRF1 receptors used in binding assays. […]

| Compound | Ki [1] | melting point |
| --- | --- | --- |
| Cc1cc(C)c(Nc2nc(C)ccc2S(=O)(=O)c2ccc(OCc3ccc(C#N)cc3)cc2)c(C)c1 [Example 23, 4-{4-[6-Methyl-2-(2,4,6-trimethylphenylamino)-pyridine-3-sulfonyl]-phenoxymethyl}-benzonitrile] | 100 to 500 nM | 208 to 210 °C |
| Cc1cc(C)c(Nc2nc(C)ccc2S(=O)(=O)c2ccc(OCc3cccc(C#N)c3)cc2)c(C)c1 [Example 24, 3-{4-[6-Methyl-2-(2,4,6-trimethylphenylamino)-pyridine-3-sulfonyl]-phenoxymethyl}-benzonitrile] | ≤ 100 nM | 155 to 158 °C |
| COC(=O)c1cccc(COc2ccc(S(=O)(=O)c3ccc(C)nc3Nc3c(C)cc(C)cc3C)cc2)c1 [Example 25, 3-{4-[6-Methyl-2-(2,4,6-trimethylphenylamino)-pyridine-3-sulfonyl]-phenoxymethyl}-benzoic acid methyl ester] | ≤ 100 nM | 148 to 150 °C |
| COc1cccc(COc2ccc(S(=O)(=O)c3ccc(C)nc3Nc3c(C)cc(C)cc3C)cc2)c1 [Example 26, {3-[4-(3-Methoxybenzyloxy)-benzenesulfonyl]-6-methylpyridin-2-yl}-(2,4,6-trimethylphenyl)-amine] | ≤ 100 nM | 124 to 126 °C |
| COc1ccccc1COc1ccc(S(=O)(=O)c2ccc(C)nc2Nc2c(C)cc(C)cc2C)cc1 [Example 27, {3-[4-(2-Methoxybenzyloxy)-benzenesulfonyl]-6-methylpyridin-2-yl}-(2,4,6-trimethylphenyl)-amine] | ≤ 100 nM | 148 to 150 °C |
| Cc1cc(C)c(Nc2nc(C)ccc2S(=O)(=O)c2ccc(OCc3ccccc3C#N)cc2)c(C)c1 [Example 28, 2-{4-[6-Methyl-2-(2,4,6-trimethylphenylamino)-pyridine-3-sulfonyl]-phenoxymethyl}-benzonitrile] | ≤ 100 nM | 208 to 210 °C |
| Cc1cc(C)c(Nc2nc(C)ccc2S(=O)(=O)c2ccc(OCc3ccccc3[N+](=O)[O-])cc2)c(C)c1 [Example 29, {6-Methyl-3-[4-(2-nitrobenzyloxy)-benzenesulfonyl]-pyridin-2-yl}-(2,4,6-trimethylphenyl)-amine] | ≤ 100 nM | 153 to 155 °C |
| COc1cc(COc2ccc(S(=O)(=O)c3ccc(C)nc3Nc3c(C)cc(C)cc3C)cc2)cc(OC)c1 [Example 30, {3-[4-(3,5-Dimethoxybenzyloxy)-benzenesulfonyl]-6-methyl-pyridin-2-yl}-(2,4,6-trimethylphenyl)-amine] | ≤ 100 nM | 107 to 109 °C |
| COc1ccc(OC)c(COc2ccc(S(=O)(=O)c3ccc(C)nc3Nc3c(C)cc(C)cc3C)cc2)c1 [Example 31, {3-[4-(2,5-Dimethoxybenzyloxy)-benzenesulfonyl]-6-methyl-pyridin-2-yl}-(2,4,6-trimethylphenyl)-amine] | ≤ 100 nM | 128 to 130 °C |
| COc1cccc(COc2ccc(S(=O)(=O)c3ccc(C)nc3Nc3c(C)cc(C)cc3C)cc2)c1OC [Example 32, {3-[4-(2,3-Dimethoxybenzyloxy)-benzenesulfonyl]-6-methylpyridin-2-yl}-(2,4,6-trimethylphenyl)-amine] | ≤ 100 nM | 124 to 126 °C |
| Cc1cc(C)c(Nc2nc(C)ccc2S(=O)(=O)c2ccc(OCc3cccc(F)c3F)cc2)c(C)c1 [Example 33, {3-[4-(2,3-Difluorobenzyloxy)-benzenesulfonyl]-6-methylpyridin-2-yl}-(2,4,6-trimethylphenyl)-amine] | ≤ 100 nM | 136 to 138 °C |
| Cc1cc(C)c(Nc2nc(C)ccc2S(=O)(=O)c2ccc(OCc3c(F)cccc3[N+](=O)[O-])cc2)c(C)c1 [Example 34, {3-[4-(2-Fluoro-6-nitrobenzyloxy)-benzenesulfonyl]-6-methyl-pyridin-2-yl}-(2,4,6-trimethylphenyl)-amine] | ≤ 100 nM | 132 to 134 °C |
| COc1ccc(C(C)=O)cc1COc1ccc(S(=O)(=O)c2ccc(C)nc2Nc2c(C)cc(C)cc2C)cc1 [Example 35] | 100 to 500 nM | 141 to 143 °C |
| Cc1cc(C)c(Nc2nc(C)ccc2S(=O)(=O)c2ccc(OCc3c(C)cccc3C)cc2)c(C)c1 [Example 36, {3-[4-(2,6-Dimethylbenzyloxy)-benzenesulfonyl]-6-methyl-pyridin-2-yl}-(2,4,6-trimethylphenyl)-amine] | ≤ 100 nM | 136 to 138 °C |
| Cc1cc(C)c(Nc2nc(C)ccc2S(=O)(=O)c2ccc(F)c(Cl)c2)c(C)c1 [Example 37, [3-(3-Chloro-4-fluorobenzenesulfonyl)-6-methylpyridin-2-yl]-(2,4,6-trimethylphenyl)-amine] | 100 to 500 nM | 139 to 141 °C |
| Cc1cc(C)c(Nc2nc(C)ccc2S(=O)(=O)c2ccc(Br)cc2)c(C)c1 [Example 46, [3-(4-Bromobenzenesulfonyl)-6-methylpyridin-2-yl]-(2,4,6-trimethylphenyl)-amine] | ≤ 100 nM | 140 to 141 °C |
| Cc1cc(C)c(Nc2nc(C)ccc2S(=O)(=O)c2ccc(C(=O)c3ccccc3)cc2)c(C)c1 [Example 54, {4-[6-Methyl-2-(2,4,6-trimethylphenylamino)-pyridine-3-sulfonyl]-phenyl}-phenyl-methanone] | ≤ 100 nM | 222 to 225 °C |
| CC(=O)OCc1ccc(S(=O)(=O)c2ccc(C)nc2Nc2c(C)cc(C)cc2C)cc1 [Example 55, Acetic acid 4-[6-methyl-2-(2,4,6-trimethylphenylamino)-pyridine-3-sulfonyl]-benzyl ester] | 100 to 500 nM | 132 to 134 °C |
| COc1cccc(S(=O)(=O)c2ccc(C)nc2Nc2c(C)cc(C)cc2C)c1 [Example 56, [3-(3-Methoxybenzenesulfonyl)-6-methylpyridin-2-yl]-(2,4,6-trimethylphenyl)-amine] | 100 to 500 nM | 87 to 88 °C |
| Cc1cc(C)c(Nc2nc(C)ccc2S(=O)(=O)c2cccc(O)c2)c(C)c1 [Example 57, 3-[6-Methyl-2-(2,4,6-trimethylphenylamino)-pyridine-3-sulfonyl]-phenol] | 100 to 500 nM | 196 to 197 °C |
| CCOc1cccc(S(=O)(=O)c2ccc(C)nc2Nc2c(C)cc(C)cc2C)c1 [Example 58, [3-(3-Ethoxybenzenesulfonyl)-6-methylpyridin-2-yl]-(2,4,6-trimethylphenyl)-amine] | 100 to 500 nM | 96 to 97 °C |
| COc1cc(COc2cccc(S(=O)(=O)c3ccc(C)nc3Nc3c(C)cc(C)cc3C)c2)cc(OC)c1 [Example 63, {3-[3-(3,5-Dimethoxybenzyloxy)-benzenesulfonyl]-6-methylpyridin-2-yl}-(2,4,6-trimethylphenyl)-amine] | 100 to 500 nM | 120 to 121 °C |
